Measurements: patent publication US8975264B2, “Compound acting as a cannabinoid receptor-1 inhibitor” (Amorepacific Corporation, priority 2010, dated 2015)

The compounds below were run against human CB1 (cannabinoid receptor 1) (Homo sapiens, UniProt P21554) (assay: CB1 receptor inhibition effect: calcium ion influx assay (Fluo-4 NW) in Chem-1 cells after 1 μM R-(+)-WIN55212-2). Details: calcium ion influx in Chem-1 cells expressing human CB1, 1 μM R-(+)-WIN55212-2.
human CB1 (cannabinoid receptor 1), sequence (P21554 whole entry): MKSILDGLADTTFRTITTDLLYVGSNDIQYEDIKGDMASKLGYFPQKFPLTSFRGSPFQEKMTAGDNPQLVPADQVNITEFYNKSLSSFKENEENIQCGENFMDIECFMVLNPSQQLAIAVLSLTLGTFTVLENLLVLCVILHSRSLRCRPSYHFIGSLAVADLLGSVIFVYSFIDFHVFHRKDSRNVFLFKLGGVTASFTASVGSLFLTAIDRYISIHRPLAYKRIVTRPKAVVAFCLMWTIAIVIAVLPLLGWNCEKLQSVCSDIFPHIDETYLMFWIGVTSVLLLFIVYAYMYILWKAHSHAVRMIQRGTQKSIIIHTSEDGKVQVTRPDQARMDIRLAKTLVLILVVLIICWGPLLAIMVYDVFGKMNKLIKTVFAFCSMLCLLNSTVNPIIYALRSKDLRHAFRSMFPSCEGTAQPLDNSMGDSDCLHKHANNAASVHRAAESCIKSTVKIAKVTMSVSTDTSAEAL
Assay type: cell-based
Procedure, shortened: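 Chem-1 cells stably expressing human CB1 were exposed to compound (0.5% DMSO) for 10 minutes in HBSS/HEPES/probenecid, then stimulated with 1 μM R-(+)-WIN55212-2. Fluo-4 calcium flux was recorded for 80 s. Percent inhibition was calculated from max−min RFU relative to agonist-only and blank wells.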
For Cc1ccc(-c2c(C)nn3c(-c4ccc(F)c(F)c4)cc(N4CCC[C@H]4CO)nc23)cc1F [Example 184], the IC50 was 150 nM. Compound Cc1nn2c(-c3cccc(C(F)(F)F)c3)cc(N3CCC[C@H]3CO)nc2c1-c1ccc(F)cc1 [Example 139] has an IC50 of 140 nM. CCc1ccc(-c2c(C)nn3c(-c4cccc(C(F)(F)F)c4)cc(N4CCC[C@H]4CO)nc23)cc1 [Example 129] showed an IC50 of 73 nM. Cc1ccc(-c2c(C)nn3c(-c4cc(F)cc(F)c4)cc(N4CCC[C@H]4CO)nc23)cc1 [Example 35] gave an IC50 of 410 nM. Cc1nn2c(-c3ccc(F)cc3)cc(N3CCC[C@H]3CO)nc2c1-c1ccc(OC(C)C)cc1 [Example 85] showed an IC50 of 470 nM. Work on COc1cccc(-c2cc(N3CCC[C@H]3CO)nc3c(-c4ccc(F)cc4F)c(C)nn23)c1 [Example 190] yielded an IC50 of 180 nM. Work on CCc1cccc(-c2cc(N3CCC[C@H]3CO)nc3c(-c4ccc(Cl)cc4)c(C)nn23)c1 [Example 14] yielded an IC50 of 90 nM. COCc1nn2c(-c3cccc(OC)c3)cc(N3CCC[C@H]3CO)nc2c1-c1ccc(OC)cc1 [Example 226] showed an IC50 of 50 nM. In the case of CCOCc1nn2c(-c3ccc(F)cc3)cc(NCCO)nc2c1-c1ccc(C)cc1 [Example 263, 2-[2-ethoxymethyl-7-(4-fluorophenyl)-3-(4-methylphenyl)-pyrazolo[1,5-a]pyrimidin-5-yl-amino]ethanol], the IC50 is reported as 90 nM. Cc1cccc(-c2cc(N3CCC[C@H]3CO)nc3c(-c4ccc(OC(F)(F)F)cc4)c(C)nn23)c1 [Example 168] gave an IC50 of 450 nM. COc1ccc(-c2c(C)nn3c(-c4ccc(Cl)cc4)cc(N4CCC[C@H]4CO)nc23)cc1 [Example 44] gave an IC50 of 160 nM. For Cc1nn2c(-c3ccccc3F)cc(N3CCC[C@H]3CO)nc2c1-c1ccc(Cl)cc1 [Example 4], the IC50 was 360 nM.
